The values that follow come from ChEMBL document CHEMBL1201862, “PubChem BioAssay data set” (2004).

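Each compound was tested at five concentrations against cells in 96-well plates for 48 hours. At the GI50, growth is halved.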 The source made the active and inactive calls. Rule as the data show it: active = GI50 up to about 1.1 µM and inactive = higher. Bounds are passed on as bounds.

Among the test systems are SF-539; SF-268; BT-549; SK-MEL-5; SK-MEL-2; NCI-H226; NCI/ADR-RES; SK-MEL-28; SNB-19; Malme-3M; UO-31; HCT-116; Hs-578T; ACHN; HCC 2998; SN12C; COLO 205; U-251; UACC-62; MDA-N.
Holding throughout (experiment): NCI-60 cell line screen, 48 h

Take `CCCc1c(Cl)nc(Cl)nc1Cl`: the GI50 in the test with SF-539 was 2.54 µM (inactive); with SF-268, 1.29 µM (inactive); in the test on BT-549, 0.377 µM (active); with SK-MEL-5 it was 0.0594 µM (active); in the test with SK-MEL-2, 0.352 µM (active); in the test on NCI-H226, 0.0222 µM (active). Moreover, the GI50 in the test on NCI/ADR-RES is 0.845 µM (active); with SK-MEL-28 it was 0.336 µM (active); in the test with SNB-19, 4.71 µM (inactive); with Malme-3M, < 0.0208 µM (active); in the test on UO-31, 25.4 µM (inactive); with HCT-116, 0.546 µM (active). For the same molecule, the GI50 in the test on Hs-578T is 3.52 µM (inactive); with ACHN, 1.64 µM (inactive); in the test on HCC 2998, 5.55 µM (inactive); in the test on SN12C, 0.467 µM (active); in the test with COLO 205 it was 0.252 µM (active); in the test with U-251 it was 1.22 µM (inactive). Also, the GI50 is 0.822 µM (active) with UACC-62 and 0.211 µM (active) with MDA-N.
For the molecule `O=C1c2ccccc2CC12Cc1ccccc1C2`, the GI50 was > 100 µM (inactive) with SF-539; 48 µM (inactive) in the test with SF-268; 83.2 µM (inactive) in the test on BT-549; 16.7 µM (inactive) in the test on SK-MEL-5; 45.3 µM (inactive) in the test on SK-MEL-2; > 100 µM (inactive) in the test on NCI-H226. Also, the GI50 with NCI/ADR-RES is 25.2 µM (inactive); in the test with SK-MEL-28 it was > 100 µM (inactive); with SNB-19, > 100 µM (inactive); in the test with Malme-3M it was 70 µM (inactive); in the test with UO-31 it was 40.1 µM (inactive); with HCT-116, 44.1 µM (inactive). In addition, the GI50 was 52.2 µM (inactive) with Hs-578T; 63.1 µM (inactive) with ACHN; 18.5 µM (inactive) with HCC 2998; 69.3 µM (inactive) with SN12C; 44.7 µM (inactive) with COLO 205; 60.7 µM (inactive) in the test with U-251. For the same molecule, the GI50 is > 100 µM (inactive) with UACC-62 and 56.4 µM (inactive) in the test with MDA-N.
Take `CN/N=C(\C)C(CN(C)C)C(c1ccccc1)c1c(O)c2ccccc2oc1=O` (stereo not given): the GI50 with SF-539 is > 100 µM (inactive); in the test on SF-268, > 100 µM (inactive); in the test on BT-549, 24.3 µM (inactive); in the test with SK-MEL-5, > 100 µM (inactive); in the test with SK-MEL-2, > 100 µM (inactive); in the test with NCI-H226, > 100 µM (inactive). In addition, the GI50 in the test with NCI/ADR-RES was > 100 µM (inactive); in the test on SK-MEL-28 it was > 100 µM (inactive); in the test on SNB-19 it was > 100 µM (inactive); in the test with Malme-3M, 78.9 µM (inactive); in the test with UO-31, > 100 µM (inactive); in the test with HCT-116 it was > 100 µM (inactive). Besides, the GI50 with Hs-578T was > 100 µM (inactive); in the test with ACHN, > 100 µM (inactive); in the test with HCC 2998 it was > 100 µM (inactive); with SN12C, > 100 µM (inactive); in the test on COLO 205, 40.4 µM (inactive); with U-251, > 100 µM (inactive). For the same molecule, the results for the GI50 with UACC-62 and in the test with MDA-N were 31.3 µM (inactive) and > 100 µM (inactive), respectively.
Regarding `COc1c(OC)c(OC)c(C(=O)/C=C/c2ccccc2)c(OC)c1OC`, the GI50 with SF-539 was 9.02 µM (inactive); in the test on SF-268, 3.69 µM (inactive); with BT-549 it was 3.79 µM (inactive); with SK-MEL-5, 13.5 µM (inactive); in the test on SK-MEL-2, 12.6 µM (inactive); in the test on NCI-H226, 8.05 µM (inactive). For the same molecule, the GI50 in the test with NCI/ADR-RES is 11.5 µM (inactive); in the test on SK-MEL-28, 13.4 µM (inactive); in the test on SNB-19 it was 12.4 µM (inactive); in the test on Malme-3M, 10.1 µM (inactive); in the test on UO-31 it was 10.5 µM (inactive); with HCT-116, 6.11 µM (inactive). Also, the GI50 with Hs-578T is 4.32 µM (inactive); in the test with ACHN, 11.7 µM (inactive); in the test with HCC 2998, 14.7 µM (inactive); in the test with SN12C, 10.6 µM (inactive); with COLO 205, 14.2 µM (inactive); in the test on U-251 it was 7.46 µM (inactive). For the same molecule, the results for the GI50 with UACC-62 and in the test on MDA-N were 6.87 µM (inactive) and 5.51 µM (inactive), respectively.
With `COc1ccc(OC2OC(COC(c3ccccc3)(c3ccc(OC)cc3)c3ccc(OC)cc3)C(O)C(O)C2O)cc1` (stereo not given), the GI50 with SF-539 is 4.42 µM (inactive); with SF-268, 3.39 µM (inactive); in the test with BT-549, 12.5 µM (inactive); in the test with SK-MEL-5 it was 5.06 µM (inactive); in the test on SK-MEL-2 it was 2.61 µM (inactive); in the test on NCI-H226, 12.3 µM (inactive). The GI50 with NCI/ADR-RES is 3.48 µM (inactive); in the test on SK-MEL-28, 2.41 µM (inactive); in the test on SNB-19 it was 9.66 µM (inactive); in the test on Malme-3M, 2.77 µM (inactive); in the test on UO-31, 2.06 µM (inactive); in the test on HCT-116 it was 3.26 µM (inactive). Moreover, the GI50 in the test with Hs-578T was 3.96 µM (inactive); in the test with ACHN, 4 µM (inactive); with HCC 2998 it was 3.44 µM (inactive); in the test on SN12C it was 2.51 µM (inactive); in the test with COLO 205, 3.85 µM (inactive); with U-251 it was 3.6 µM (inactive). For the same molecule, the results for the GI50 in the test on UACC-62 and with MDA-N were 3.43 µM (inactive) and 4.37 µM (inactive), respectively.
For the molecule `COC1=C(C)C(=O)C2=C(C1=O)C1C3CC4=C(C(=O)C(OC)=C(C)C4=O)C(CNC(=O)C(C)O)N3C(C#N)C(C2)N1C` (stereo not given), the GI50 in the test with SF-539 was < 0.01 µM (active); in the test with SF-268, < 0.01 µM (active); in the test on BT-549, < 0.01 µM (active); in the test on SK-MEL-5 it was < 0.01 µM (active); with SK-MEL-2, < 0.01 µM (active); in the test on NCI-H226, 0.0212 µM (active). The GI50 with NCI/ADR-RES was 1.46 µM (inactive); with SK-MEL-28 it was < 0.01 µM (active); in the test on SNB-19, < 0.01 µM (active); in the test on Malme-3M, < 0.01 µM (active); in the test with UO-31, 0.101 µM (active); with HCT-116, 0.0465 µM (active). Moreover, the GI50 is < 0.01 µM (active) in the test with Hs-578T; 0.157 µM (active) in the test on ACHN; < 0.0113 µM (active) in the test with HCC 2998; < 0.01 µM (active) in the test with SN12C; < 0.01 µM (active) in the test with COLO 205; < 0.01 µM (active) in the test on U-251. Moreover, the GI50 in the test on UACC-62 and in the test on MDA-N was < 0.01 µM (active) each time.
Consider `CC1OC2(CC(OCc3ccccc3)C1OCc1ccccc1)OCCO2` (stereo not given), for which the GI50 in the test with SF-539 was > 100 µM (inactive); in the test on SF-268, 60.1 µM (inactive); in the test on BT-549 it was 59 µM (inactive); with SK-MEL-5, 33 µM (inactive); with SK-MEL-2 it was 78.5 µM (inactive); in the test on NCI-H226, 82.6 µM (inactive). The GI50 was 39.1 µM (inactive) in the test with NCI/ADR-RES; > 100 µM (inactive) in the test with SK-MEL-28; 44.3 µM (inactive) in the test on SNB-19; > 100 µM (inactive) with Malme-3M; 42.3 µM (inactive) in the test on UO-31; 45.9 µM (inactive) in the test with HCT-116. In addition, the GI50 in the test with Hs-578T is 17.4 µM (inactive); in the test with ACHN, 61.8 µM (inactive); with HCC 2998, 71.8 µM (inactive); in the test with SN12C it was 21.4 µM (inactive); with COLO 205, 62.1 µM (inactive); in the test with U-251 it was 44.5 µM (inactive). Further, the figures for the GI50 with UACC-62 and in the test with MDA-N were 56.9 µM (inactive) and 55.1 µM (inactive), respectively.
`c1nc(N2CC2)c2cnn(C3CCCCO3)c2n1` (stereo not given): the GI50 with SF-539, in the test on SF-268, in the test with BT-549, in the test on SK-MEL-5, in the test with SK-MEL-2 and in the test with NCI-H226 was > 100 µM (inactive) each time. Further, the GI50 with NCI/ADR-RES, in the test with SK-MEL-28, in the test with SNB-19, in the test with Malme-3M, in the test on UO-31 and in the test on HCT-116 was > 100 µM (inactive) each time. Further, the GI50 in the test on Hs-578T, in the test on ACHN, in the test on HCC 2998, in the test with SN12C, with COLO 205 and in the test with U-251 was > 100 µM (inactive) each time. In addition, the GI50 in the test with UACC-62 and in the test on MDA-N was > 100 µM (inactive) in each case.
`CNC(=S)N/N=C/c1cccc(C)n1`: the GI50 is 18.4 µM (inactive) with SF-539; 25.9 µM (inactive) in the test on SF-268; 23.5 µM (inactive) in the test on BT-549; 25.1 µM (inactive) with SK-MEL-5; 49.1 µM (inactive) with SK-MEL-2; > 50.7 µM (inactive) in the test on NCI-H226. Besides, the GI50 is 23.8 µM (inactive) in the test on NCI/ADR-RES; 56.5 µM (inactive) with SK-MEL-28; 51.9 µM (inactive) in the test with SNB-19; 37.2 µM (inactive) with Malme-3M; 20.7 µM (inactive) in the test on UO-31; 31.6 µM (inactive) in the test with HCT-116. Also, the GI50 in the test on Hs-578T was > 91.8 µM (inactive); in the test on ACHN it was 28.2 µM (inactive); with HCC 2998, > 54 µM (inactive); with SN12C, 26.4 µM (inactive); in the test on COLO 205, 38.2 µM (inactive); in the test with U-251, 26.1 µM (inactive). Also, the GI50 in the test with UACC-62 was 23.6 µM (inactive); in the test on MDA-N it was 42 µM (inactive).
On to `COc1cc2c(/C=C3/C(=O)N(c4ccccc4)c4ccccc43)c(Cl)[nH]c2cc1C`, for which the GI50 is 2.77 µM (inactive) in the test on SF-539; 3.47 µM (inactive) in the test with SF-268; 2.48 µM (inactive) with BT-549; 2.32 µM (inactive) in the test on SK-MEL-5; 2.72 µM (inactive) in the test on SK-MEL-2; 24.3 µM (inactive) in the test with NCI-H226. Also, the GI50 in the test with NCI/ADR-RES is 2.11 µM (inactive); in the test on SK-MEL-28, 3.57 µM (inactive); with SNB-19, 4.55 µM (inactive); in the test on Malme-3M it was 4.29 µM (inactive); in the test on UO-31, 2.88 µM (inactive); with HCT-116, 2.95 µM (inactive). For the same molecule, the GI50 is 4.56 µM (inactive) with Hs-578T; 3.44 µM (inactive) in the test on ACHN; 2.37 µM (inactive) in the test with HCC 2998; 2.31 µM (inactive) with SN12C; 1.9 µM (inactive) in the test with COLO 205; 3.24 µM (inactive) in the test on U-251. Besides, the figures for the GI50 with UACC-62 and with MDA-N were 2.93 µM (inactive) and 1.45 µM (inactive), respectively.
